According to patent US12091425B2 (AMGEN INC., priority 2016, dated 2024):
Several values for one entry are separate records, joined by “and”; a condition that tells them apart may be missing. Equal values may be shown once. Read-outs that look alike come from different tables or passages of the source.

Compound: COC[C@@]1(C)CC=C[C@H](O)[C@@H]2CC[C@H]2CN2C[C@@]3(CCCc4cc(Cl)ccc43)COc3ccc(cc32)C(=O)NS1(=O)=O (single isomer, unassigned)
- ring closure, isolated yield (from COC[C@@](C)(C/C=C/[C@H](O)[C@@H]1CC[C@H]1CN1C[C@@]2(CCCc3cc(Cl)ccc32)COc2ccc(C(=O)O)cc21)S(N)(=O)=O, amide bond, 15-membered ring): 8.8% and 7.5%

Compound: COc1ccc(CN2CC=CCS(=O)(=O)NC(=O)c3ccc4c(c3)N(C[C@@H]3CC[C@H]3C2=O)C[C@@]2(CCCc3cc(Cl)ccc32)CO4)cc1 (single isomer, unassigned)
- ring closure, isolated yield (from C=CCN(Cc1ccc(OC)cc1)C(=O)[C@@H]1CC[C@H]1CN1C[C@@]2(CCCc3cc(Cl)ccc32)COc2ccc(C(=O)NS(=O)(=O)CC=C)cc21, rcm bond, 16-membered ring, Hoveyda-Grubbs II, toluene, 1.0 mM, 110.0 °C, 1.5 h): 51%

Compound: C[C@H]1CC=CC[C@H](O)[C@@H]2CC[C@H]2CN2C[C@@]3(CCCc4cc(Cl)ccc43)COc3ccc(cc32)C(=O)NS(=O)(=O)[C@H]1C (single isomer, unassigned)
- ring closure, isolated yield (from C=CC[C@H](C)[C@H](C)S(=O)(=O)NC(=O)c1ccc2c(c1)N(C[C@@H]1CC[C@H]1[C@@H](O)CC=C)C[C@@]1(CCCc3cc(Cl)ccc31)CO2, rcm bond, 17-membered ring, Hoveyda-Grubbs II (10 mol%), DCM, 1.6 mM, 45.0 °C): 25%

Compound: C[C@H]1CS(=O)(=O)NC(=O)c2ccc3c(c2)N(C[C@@H]2CC[C@H]2[C@@H](O)C=C[C@H]1CO[Si](c1ccccc1)(c1ccccc1)C(C)(C)C)C[C@@]1(CCCc2cc(Cl)ccc21)CO3 (single isomer, unassigned)
- ring closure, isolated yield (from C[C@@H](CS(N)(=O)=O)[C@@H](/C=C/[C@H](O)[C@@H]1CC[C@H]1CN1C[C@@]2(CCCc3cc(Cl)ccc32)COc2ccc(C(=O)O)cc21)CO[Si](c1ccccc1)(c1ccccc1)C(C)(C)C, amide bond, 16-membered ring, EDC/DMAP, DCM, 2.0 mM, 16.0 h, 3 steps): 10.8%

Compound: O=C1NS(=O)(=O)CC2CC2C=C[C@H](O)[C@@H]2CC[C@H]2CN2C[C@@]3(CCCc4cc(Cl)ccc43)COc3ccc1cc32 (single isomer, unassigned)
- ring closure, isolated yield (from C=C[C@H](O)[C@@H]1CC[C@H]1CN1C[C@@]2(CCCc3cc(Cl)ccc32)COc2ccc(C(=O)NS(=O)(=O)CC3CC3/C=C/C)cc21, rcm bond, 16-membered ring, Hoveyda-Grubbs II, DCE, 2.0 mM, 60.0 °C, 6.0 h): 12%

Compound: O=C1NS(=O)(=O)[C@H]2CCC[C@H](C=C[C@H](O)[C@@H]3CC[C@H]3CN3C[C@@]4(CCCc5cc(Cl)ccc54)COc4ccc1cc43)C2 (single isomer, unassigned)
- ring closure, isolated yield (from NS(=O)(=O)[C@H]1CCC[C@H](/C=C/[C@H](O)[C@@H]2CC[C@H]2CN2C[C@@]3(CCCc4cc(Cl)ccc43)COc3ccc(C(=O)O)cc32)C1, amide bond, 16-membered ring, EDC/DMAP, DCM, 2.0 mM, 64.0 h): 20%

Compound: (1S,3′R,6′R,7′S,8′E,12′R)-12′-((2S)-2-((tert-butyl(diphenyl)silyl)oxy)propyl)-6-chloro-7′-hydroxy-3,4-dihydro-2h,15′h-spiro[naphthalene-1,22′-[20]oxa[13]thia[1,14]diazatetracyclo[14.7.2.0^3,6.0^19,24]pentacosa[8,16,18,24]tetraen]-15′-one 13′,13′-dioxide or (1S,3′R,6′R,7′S,8′E,12′S)-12′-((2S)-2-((tert-butyl(diphenyl)silyl)oxy)propyl)-6-chloro-7′-hydroxy-3,4-dihydro-2h,15′h-spiro[naphthalene-1,22′-[20]oxa[13]thia[1,14]diazatetracyclo[14.7.2.0^3,6.0^19,24]pentacosa[8,16,18,24]tetraen]-15′-one 13′,13′-dioxide
- ring closure, isolated yield (rcm bond, 16-membered ring, Hoveyda-Grubbs II, DCM, 2.7 mM, 45.0 °C): 32%

Compound: (1S,3′R,6′R,7′S,8′E,12′R)-12′-((2S)-2-((tert-butyl(diphenyl)silyl)oxy)propyl)-6-chloro-7′-hydroxy-3,4-dihydro-2h,15′h-spiro[naphthalene-1,22′-[20]oxa[13]thia[1,14]diazatetracyclo[14.7.2.0^3,6.0^19,24]pentacosa[8,16,18,24]tetraen]-15′-one 13′,13′-dioxide] or (1S,3′R,6′R,7′S,8′E,12′S)-12′-((2S)-2-((tert-butyl(diphenyl)silyl)oxy)propyl)-6-chloro-7′-hydroxy-3,4-dihydro-2h,15′h-spiro[naphthalene-1,22′-[20]oxa[13]thia[1,14]diazatetracyclo[14.7.2.0^3,6.0^19,24]pentacosa[8,16,18,24]tetraen]-15′-one 13′,13′-dioxide
- ring closure, isolated yield (rcm bond, 16-membered ring, Hoveyda-Grubbs II (20 mol%), DCM, 1.5 mM, 45.0 °C): 27%

Compound: (1S,3′R,6′R,7′S,8′E,12′S)-12′-((2R)-2-((tert-butyl(diphenyl)silyl)oxy)propyl)-6-chloro-7′-hydroxy-3,4-dihydro-2H,15′H-spiro[naphthalene-1,22′-[20]oxa[13]thia[1,14]diazatetracyclo[14.7.2.0^3,6.0^19,24]pentacosa[8,16,18,24]tetraen]-15′-one 13′,13′-dioxide or (1S,3′R,6′R,7′S,8′E,12′R)-12′-((2R)-2-((tert-butyl(diphenyl)silyl)oxy)propyl)-6-chloro-7′-hydroxy-3,4-dihydro-2H,15′H-spiro[naphthalene-1,22′-[20]oxa[13]thia[1,14]diazatetracyclo[14.7.2.0^3,6.0^19,24]pentacosa[8,16,18,24]tetraen]-15′-one 13′,13′-dioxide
- ring closure, isolated yield (rcm bond, 16-membered ring, Hoveyda-Grubbs II, DCM, 1.5 mM, 45.0 °C): 20%

Compound: (1S,3′R,6′R,7′S,8′Z,12′S)-12′-((2R)-2-((tert-butyl(diphenyl)silyl)oxy)propyl)-6-chloro-7′-hydroxy-3,4-dihydro-2H,15′H-spiro[naphthalene-1,22′-[20]oxa[13]thia[1,14]diazatetracyclo[14.7.2.0^3,6.0^19,24]pentacosa[8,16,18,24]tetraen]-15′-one 13′,13′-dioxide or (1S,3′R,6′R,7′S,8′Z,12′R)-12′-((2R)-2-((tert-butyl(diphenyl)silyl)oxy)propyl)-6-chloro-7′-hydroxy-3,4-dihydro-2H,15′H-spiro[naphthalene-1,22′-[20]oxa[13]thia[1,14]diazatetracyclo[14.7.2.0^3,6.0^19,24]pentacosa[8,16,18,24]tetraen]-15′-one 13′,13′-dioxide
- ring closure, isolated yield (rcm bond, 16-membered ring, Hoveyda-Grubbs II (10 mol%), DCM, 1.5 mM, 45.0 °C): 30%

Compound: (1S,3′R,6′R,7′S,9′Z,12′S)-6-chloro-7′-hydroxy-12′-(trifluoromethyl)-3,4-dihydro-2H,15′H-spiro[naphthalene-1,22′-[20]oxa[13]thia[1,14]diazatetracyclo[14.7.2.0^3,6.0^19,24]pentacosa [9,16,18,24]tetraen]-15′-one 13′,13′-dioxide and [...] (1S,3′R,6′R,7′S,9′E,12′S)-6-chloro-7′-hydroxy-12′-(trifluoromethyl)-3,4-dihydro-2H,15′H-spiro[naphthalene-1,22′-[20]oxa[13]thia[1,14]diazatetracyclo[14.7.2.0^3,6.0^19,24]pentacosa [9,16,18,24]tetraen]-15′-one 13′,13′-dioxide and (1S,3′R,6′R,7′S,9′E,12′R)-6-chloro-7′-hydroxy-12′-(trifluoromethyl)-3,4-dihydro-2H,15′H-spiro[naphthalene-1,22′-[20]oxa[13]thia[1,14]diazatetracyclo[14.7.2.0^3,6.0^19,24]pentacosa [9,16,18,24]tetraen]-15′-one 13′,13′-dioxide
- ring closure, isolated yield (rcm bond, 16-membered ring, Hoveyda-Grubbs II, toluene, 2.4 mM, 101.0 °C): 63%

Compound: [(1S,3′R,6′R,7′S,8′Z,12′R)-12′-((2R)-2-((tert-butyl(diphenyl)silyl)oxy)propyl)-6-chloro-7′-hydroxy-3,4-dihydro-2h,15′h-spiro[naphthalene-1,22′-[20]oxa[13]thia[1,14]diazatetracyclo[14.7.2.0^3,6.0^19,24]pentacosa[8,16,18,24]tetraen]-15′-one 13′,13′-dioxide and (1S,3′R,6′R,7′S,8′E,12′R)-12′-((2R)-2-((tert-butyl(diphenyl)silyl)oxy)propyl)-6-chloro-7′-hydroxy-3,4-dihydro-2h,15′h-spiro[naphthalene-1,22′-[20]oxa[13]thia[1,14]diazatetracyclo[14.7.2.0^3,6.0^19,24]pentacosa[8,16,18,24]tetraen]-15′-one 13′,13′-dioxide] or [(1S,3′R,6′R,7′S,8′Z,12′S)-12′-((2R)-2-((tert-butyl(diphenyl)silyl)oxy)propyl)-6-chloro-7′-hydroxy-3,4-dihydro-2h,15′h-spiro[naphthalene-1,22′-[20]oxa[13]thia[1,14]diazatetracyclo[14.7.2.0^3,6.0^19,24]pentacosa[8,16,18,24]tetraen]-15′-one 13′,13′-dioxide and (1S,3′R,6′R,7′S,8′E,12′S)-12′-((2R)-2-((tert-butyl(diphenyl)silyl)oxy)propyl)-6-chloro-7′-hydroxy-3,4-dihydro-2h,15′h-spiro[naphthalene-1,22′-[20]oxa[13]thia[1,14]diazatetracyclo[14.7.2.0^3,6.0^19,24]pentacosa[8,16,18,24]tetraen]-15′-one 13′,13′-dioxide]
- ring closure, isolated yield (rcm bond, 16-membered ring, Hoveyda-Grubbs II, DCM, 1.4 mM, 45.0 °C): 38%
- ring closure, isolated yield (rcm bond, 16-membered ring, Hoveyda-Grubbs II, DCM, 1.51 mM, 45.0 °C): 52%
